This is an account of results in patent US5424303A, “Substituted aminophosphonate derivatives, process for their preparation and pharmaceutical compositions containing them” (Symphar SA, priority 1992, dated 1995).

Each structure is given as a SMILES string. Some results are limits rather than exact numbers.

One experiment deals with plasma cholesterol. Briefly: Hypocholesterolemic activity, plasma cholesterol in mice fed test compound in diet. It is filed as in vivo, OF1 strain mice. The conditions noted are these: for plasma cholesterol values as compared to control: same experimental conditions, reference drugs; for plasma cholesterol values as compared to control / decrease plasma cholesterol by: mouse; for change in vivo at 180 mg/kg/day: Mus musculus, feed or water, 240 h, read-out: Plasma Cholesterol (% Control), 0.1% compound in food, 10 days, ca. 180 mg/kg daily, mouse; for decrease plasma cholesterol by: 0.1% in food, 10 days. The method, then: A. Hypocholesterolemic activity
Mouse fed a normal diet is a convenient model which was proposed by several authors (P. Olivier et al, Atherosclerosis 70, 107-114, 1988) ,for the screening for hypocholesterolemic drugs. OF1 strain mice (Iffa Credo) weighing between 25 and 35 g were divided into 5 groups of 5 animals each, four groups received the test compounds and the fifth group served as control. The test compounds were dissolved in diethyl ether. The ether solution was added to food to obtain a final concentration of 0.1%. compound in food. Ether was then evaporated at room temperature. The animals were fed for 10 days, the dally food intake corresponds to ca. 180 mg/kg. After an overnight fast, they were sacrificed by decapitation under ether anesthesia. Blood samples were collected using EDTA as anticoagulant.
Plasma cholesterol was measured by an enzymatic test (DIAMED, Morat, Switzerland). The mean values of each group receiving the test or reference compounds were expressed as percent of mean value of the contemporary control.

Experiment [1] relates to lipid peroxidation (rat liver homogenate). The experiment can be described thus: Antioxidant activity, inhibition of iron induced lipid peroxidation in liver homogenate. It is filed as biochemical, Wistar rat. The conditions noted are these: FeSO4, 37° C., 2 h; <25 μM where IC50 was not determined. The method, then: The liver of a Wistar rat anesthetized with ether was collected and homogenized in 4 volumes of phosphate buffer (+4° C., pH 7.4) by means of a Potter. After centrifugation at 2000 rpm for 10 min the supernatant obtained was kept at +4° C. Lipid peroxidation was carried out in presence of FeSOhd according to the method described by A. T. Quitaniha et at, Ann.
The mixture contained 1.7 ml phosphate buffer, 0.2 ml homogenate and 0.1 ml of a 2 mM FeSO4 solution. The test compounds were added in a volume of 61 μl of ethanol or DMSO. Oxydation was carried out at 37° C. for 2 h and was stopped by the addition of 20 μl of 2% ethanolic solution of BHT.

`Cc1cc(C(C)(C)C)c(O)c(C(C)(C)C)c1` [BHT, 2,6-di-tert-butyl-4-methylphenol, reference compound]: the “hypocholesterolemic activity (in words)” value in the experiment with plasma cholesterol (this model (mouse)) was “no hypocholesterolemic activity”. In experiment [1], this compound gave an IC50 of 5 µM. As to `CCOC(=O)C(C)(C)Oc1ccc(Cl)cc1` [Clofibrate, reference compound], the “plasma cholesterol values as compared to control” value with plasma cholesterol is “+4%”.

Take `CCOP(=O)(OCC)C(NC(C)(C)C)c1cc(C(C)(C)C)c(O)c(C(C)(C)C)c1` (stereo not drawn) [Compound 1]: the change in vivo at 180 mg/kg/day with plasma cholesterol came out at 8%. The compound further returned an IC50 in experiment [1] of over 25 µM.

`CCCCCNC(c1cc(C(C)(C)C)c(O)c(C(C)(C)C)c1)P(=O)(OCC)OCC` (stereo not drawn) [Compound 2]: the change in vivo at 180 mg/kg/day with plasma cholesterol was -8%. In experiment [1], it took 2.5 µM to reach half-maximal inhibition (IC50). Consider `CCOP(=O)(OCC)C(Nc1ccccc1)c1cc(C(C)(C)C)c(O)c(C(C)(C)C)c1` (stereo not drawn) [Compound 3], for which, in the experiment on plasma cholesterol, the change in vivo at 180 mg/kg/day is -30% and the “decrease plasma cholesterol by” value is given as “more than 30%”. Moreover, the IC50 in experiment [1] was 5.1 µM. As for `CCOP(=O)(OCC)C(Nc1ccc(O)cc1)c1cc(C(C)(C)C)c(O)c(C(C)(C)C)c1` (stereo not drawn) [Compound 4], in the experiment with plasma cholesterol, the change in vivo at 180 mg/kg/day was -15%. Further, in experiment [1], the IC50 turned out to be 4.1 µM.

In the case of `CCOP(=O)(OCC)C(Nc1ccc(O)c(C)c1)c1cc(C(C)(C)C)c(O)c(C(C)(C)C)c1` (stereo not drawn) [Compound 5], the change in vivo at 180 mg/kg/day with plasma cholesterol was determined as 2%. In experiment [1], this compound displayed an IC50 of 1.3 µM. For `CCOP(=O)(OCC)C(Nc1ccc(Cl)cc1)c1cc(C(C)(C)C)c(O)c(C(C)(C)C)c1` (stereo not drawn) [Compound 6], in that order: -17% and under 25 µM. As to `CCOP(=O)(OCC)C(Nc1ccc(OC)cc1)c1cc(C(C)(C)C)c(O)c(C(C)(C)C)c1` (stereo not drawn) [Compound 7, Diethyl α-(3,5-di-tert-butyl-4-hydroxyphenyl)-N-(4-methoxyphenyl)-aminomethylphosphonate], in the experiment with plasma cholesterol, the change in vivo at 180 mg/kg/day was -47% and the “decrease plasma cholesterol by” value is “more than 30%”. Besides, the IC50 in experiment [1] is under 25 µM. In turn, `CCOP(=O)(OCC)C(Nc1cccc(C)c1)c1cc(C(C)(C)C)c(O)c(C(C)(C)C)c1` (stereo not drawn) [Compound 8] yielded an IC50 in experiment [1] of under 25 µM. In the case of `CCOc1ccc(NC(c2cc(C(C)(C)C)c(O)c(C(C)(C)C)c2)P(=O)(OCC)OCC)cc1` (stereo not drawn) [Compound 9], in the experiment on plasma cholesterol, the change in vivo at 180 mg/kg/day is -31% and the “decrease plasma cholesterol by” value is “more than 30%”. In experiment [1], this compound returned an IC50 of under 25 µM. Regarding `CCCCCc1ccc(NC(c2cc(C(C)(C)C)c(O)c(C(C)(C)C)c2)P(=O)(OCC)OCC)cc1` (stereo not drawn) [Compound 10], the change in vivo at 180 mg/kg/day with plasma cholesterol is 11%. In experiment [1], it took 2.9 µM to reach half-maximal inhibition (IC50). `CCOP(=O)(OCC)C(Nc1ccc(N2C(=O)c3ccc(Cl)cc3C2=O)c(C)c1)c1cc(C(C)(C)C)c(O)c(C(C)(C)C)c1` (stereo not drawn) [Compound 11] gave an IC50 in experiment [1] of 2.7 µM. In the case of `CCOP(=O)(OCC)C(NCc1ccccc1)c1cc(C(C)(C)C)c(O)c(C(C)(C)C)c1` (stereo not drawn) [Compound 12], the change in vivo at 180 mg/kg/day in the experiment on plasma cholesterol was -23%. The compound further registered an IC50 in experiment [1] of 0.7 µM.

With `CCOP(=O)(OCC)C(NCCc1ccccc1)c1cc(C(C)(C)C)c(O)c(C(C)(C)C)c1` (stereo not drawn) [Compound 13], the change in vivo at 180 mg/kg/day in the experiment with plasma cholesterol is -28%. Moreover, in experiment [1], it took 4.9 µM to reach half-maximal inhibition (IC50). On the same counts, the results for `CCOP(=O)(OCC)C(NCCc1ccc(C)cc1)c1cc(C(C)(C)C)c(O)c(C(C)(C)C)c1` (stereo not drawn) [Compound 14] are -6% and under 25 µM. For `CCOP(=O)(OCC)C(NCCc1ccc(O)cc1)c1cc(C(C)(C)C)c(O)c(C(C)(C)C)c1` (stereo not drawn) [Compound 15], in that order: -18% and under 25 µM. `COP(=O)(OC)C(NCCc1ccc(Cl)cc1)c1cc(C(C)(C)C)c(O)c(C(C)(C)C)c1` (stereo not drawn) [Compound 16]: the change in vivo at 180 mg/kg/day in the experiment with plasma cholesterol is -28%. Further, in experiment [1], the IC50 came out at 4.9 µM. As for `CCOP(=O)(OCC)C(NCCc1ccc(Cl)cc1)c1cc(C(C)(C)C)c(O)c(C(C)(C)C)c1` (stereo not drawn) [Compound 17, Diethyl α-(3,5-di-tert-butyl-4-hydroxyphenyl)-N-[2-(4-chlorophenyl)ethyl]-aminomethylphosphonate], in the experiment with plasma cholesterol, the change in vivo at 180 mg/kg/day was -43% and the “decrease plasma cholesterol by” value was “more than 30%”. Moreover, the IC50 in experiment [1] is 5.3 µM. Consider `CCCOP(=O)(OCCC)C(NCCc1ccc(Cl)cc1)c1cc(C(C)(C)C)c(O)c(C(C)(C)C)c1` (stereo not drawn) [Compound 18], for which, in the experiment on plasma cholesterol, the change in vivo at 180 mg/kg/day was -23%. Moreover, the IC50 in experiment [1] worked out at 2.9 µM. Consider `CC(C)OP(=O)(OC(C)C)C(NCCc1ccc(Cl)cc1)c1cc(C(C)(C)C)c(O)c(C(C)(C)C)c1` (stereo not drawn) [Compound 19], for which, in the experiment on plasma cholesterol, the change in vivo at 180 mg/kg/day is -33% and the “decrease plasma cholesterol by” value is “more than 30%”. In experiment [1], the IC50 stood at 3 µM. For the compound `CCCCOP(=O)(OCCCC)C(NCCc1ccc(Cl)cc1)c1cc(C(C)(C)C)c(O)c(C(C)(C)C)c1` (stereo not drawn) [Compound 20], in the experiment on plasma cholesterol, the change in vivo at 180 mg/kg/day was -9%. Besides, inhibition in experiment [1] was half-maximal at 3.4 µM (IC50).

With `CCOP(=O)(OCC)C(NCCN1CCCCC1)c1cc(C(C)(C)C)c(O)c(C(C)(C)C)c1` (stereo not drawn) [Compound 34], the change in vivo at 180 mg/kg/day in the experiment with plasma cholesterol is -5%. Still for that read-out and setting: as for `CCOP(=O)(OCC)C(NCc1cc(C(C)(C)C)c(O)c(C(C)(C)C)c1)c1cc(C(C)(C)C)c(O)c(C(C)(C)C)c1` (stereo not drawn) [Compound 40, Diethyl α-(3,5-di-tert-butyl-4-hydroxyphenyl)-N-(3,5-di-tert-butyl-4-hydroxybenzyl)-aminomethylphosphonate], the figure is -25%. As for `CCOP(=O)(OCC)C(c1cc(C(C)(C)C)c(O)c(C(C)(C)C)c1)N(Cc1ccccc1)C(C)=O` (stereo not drawn) [Compound 51], in experiment [1], the half-inhibitory concentration (IC50) was under 25 µM. In the case of `CCOP(=O)(OCC)C(c1cc(C(C)(C)C)c(O)c(C(C)(C)C)c1)N(Cc1ccccc1)C(=O)C(F)(F)F` (stereo not drawn) [Compound 52], the IC50 in experiment [1] was under 25 µM. On to `CCOP(=O)(OCC)C(c1cc(C(C)(C)C)c(O)c(C(C)(C)C)c1)N(CCc1ccccc1)C(C)=O` (stereo not drawn) [Compound 53], for which the IC50 in experiment [1] was under 25 µM. Same read-out and setting: to `CCOP(=O)(OCC)C(c1cc(C(C)(C)C)c(O)c(C(C)(C)C)c1)N(CCc1ccccc1)C(=O)C(F)(F)F` (stereo not drawn) [Compound 54] belongs under 25 µM. `CCCCOP(=O)(OCCCC)C(c1cc(C(C)(C)C)c(O)c(C(C)(C)C)c1)N(CCc1ccc(Cl)cc1)C(=O)C(F)(F)F` (stereo not drawn) [Compound 55] displayed an IC50 in experiment [1] of over 25 µM. Still for that read-out and setting: as for `CCOP(=O)(OCC)C(c1cc(C(C)(C)C)c(O)c(C(C)(C)C)c1)N(C(=O)C(F)(F)F)C(Cc1ccccc1)c1ccccc1` (stereo not drawn) [Compound 56], the figure is under 25 µM; as for `CCOP(=O)(OCC)C(c1cc(C(C)(C)C)c(O)c(C(C)(C)C)c1)N(CCOc1ccccc1)C(=O)C(F)(F)F` (stereo not drawn) [Compound 57], under 25 µM. The same measure, in the same setting: to `CCCCCc1ccc(N(C(=O)C(F)(F)F)C(c2cc(C(C)(C)C)c(O)c(C(C)(C)C)c2)P(=O)(OCC)OCC)cc1` (stereo not drawn) [Compound 58] belongs under 25 µM; to `CCOP(=O)(OCC)C(c1cc(C(C)(C)C)c(O)c(C(C)(C)C)c1)N(CCCc1ccccc1)C(=O)C(F)(F)F` (stereo not drawn) [Compound 64, Diethyl α-(3,5-di-tert-butyl-4-hydroxyphenyl)-N-trifluoroacetyl-N-(3-phenylpropyl)-aminomethylphosphonate], under 25 µM; to `CCOP(=O)(OCC)C(c1cc(C(C)(C)C)c(O)c(C(C)(C)C)c1)N(CCCCc1ccccc1)C(=O)C(F)(F)F` (stereo not drawn) [Compound 66], under 25 µM. On to `CCCCOc1ccc(C(NCCc2ccccc2)P(=O)(OCC)OCC)cc1` (stereo not drawn) [Compound 69], for which the change in vivo at 180 mg/kg/day with plasma cholesterol is 2%. Still for that read-out and setting: to `CCOP(=O)(OCC)C(N)c1cc(C(C)(C)C)c(O)c(C(C)(C)C)c1` (stereo not drawn) [Compound 83, Diethyl α-(3,5-di-tert-butyl4-hydroxyphenyl)-aminomethyl-phosphonate] belongs 4%; to `C=CCNC(c1cc(C(C)(C)C)c(O)c(C(C)(C)C)c1)P(=O)(OCC)OCC` (stereo not drawn) [Compound 84, Diethyl α-(3,5-di-tert-butyl-4-hydroxyphenyl)-N-allyl-aminomethylphosphonate], -19%; to `CCOP(=O)(OCC)C(NC(=O)OCc1ccccc1)c1cc(C(C)(C)C)c(O)c(C(C)(C)C)c1` (stereo not drawn) [Compound 85, Diethyl α-(3,5-di-tert-butyl-4-hydroxyphenyl)-N-benzyloxycarbonyl-aminomethylphosphonate], 0%. On the same count and under the same terms, as for `CCOP(=O)(OCC)C(NCc1ccncc1)c1cc(C(C)(C)C)c(O)c(C(C)(C)C)c1` (stereo not drawn) [Compound 86], the figure is -15%; as for `CCOP(=O)(OCC)C(NC1COC(C)(C)OC1c1ccccc1)c1cc(C(C)(C)C)c(O)c(C(C)(C)C)c1` (stereo not drawn) [Compound 91], -18%.

`CC(C)OC(=O)C(C)(C)Oc1ccc(C(=O)c2ccc(Cl)cc2)cc1` [Fenofibrate, reference compound]: the “plasma cholesterol values as compared to control” value in the experiment with plasma cholesterol was -26%. As to `Cc1ccc(C)c(OCCCC(C)(C)C(=O)O)c1` [Gemfibrozil, reference compound], in the experiment on plasma cholesterol, the “plasma cholesterol values as compared to control” value was -7%.

By IC50 is commonly meant the point on the concentration scale where inhibition reaches its midpoint. Low readings indicate greater potency in that assay, high ones weaker potency in that assay.
